From patent publication US20050085509A1, “Piperidin-2-one derivative compounds and drugs containing these compounds as the active ingredient” (priority 2001, published 2005) come the findings set out here.

The target of assay [1] is T1, recombinant human p38αMAP kinase (Homo sapiens, UniProt Q16539).
T1 construct: purchased Upstate Biotechnology Inc. #14-251
The assay can be described thus: p38αMAP kinase inhibitory activity (1): ATF-2 phosphorylation, Western blotting. Particulars: Western blotting with anti-phosphorylated ATF-2 antibody; FIG. 1. The class given is biochemical. The source says: (1) Study of p38αMAP Kinase Inhibitory Activity (1)
Using activation transcription factor 2 (activating transcription factor 2; ATF-2, Cell Signaling Inc., #9224L) which is a substrate of p38αMAP kinase, the inhibitory effect of the compound of the present invention on the ATF-2 phosphorylation by recombinant human p38αMAP kinase (Upstate Biotechnology Inc., #14-251) was studied by the Western-blotting method using the anti-phosphorylated ATF-2 antibody (Cell Signaling Inc., #9221L). In other words, 10 μL of a solution of the compound of the present invention at a known concentration was added to 10 μL of the kinase buffer (Cell Signaling Inc., #9802) containing recombinant human p38αMAP kinase (100 ng/tube) and pre-incubated for 10 minutes at 30° C. Then, 20 μL of adenosine triphosphate (ATP)/ATF-2 mixture was added and after the incubation of 30 minutes at 30° C., 20 μL of SDS buffer (187.5 mM Tris/6% SDS/30% glycerol/150 mM DTT/0.03% bromophenol blue) was added to stop the enzyme reaction. After heating at 100° C. for 5 minutes, mixing and centrifugation were conducted. After re-mixing, 20 μL of the sample was subjected to an electrophoresis on SDS-PAGE gel (10-20%, Daiichi Pure Chemicals Co., Ltd.). […] After washing with TBS-T solution, phosphorylated ATF-2 was detected using Western blotting detection reagent (Amersham Pharmacia Biotech).
For orientation: A western blot detects proteins with antibodies after separation by electrophoresis.

Assay [2] has as its target T1, recombinant human p38αMAP kinase. The assay can be described thus: p38αMAP kinase inhibitory activity (2): ATF-2 phosphorylation, Alpha Screen. The assay is classed as biochemical. The following applies: 30° C., 30 minutes, read-out: IC50, inhibition of ATF-2 phosphorylation by p38αMAP kinase. As to the method: (2) Study of p38αMAP Kinase Inhibitory Activity (2)
Using activation transcription factor 2 (hereinafter abbreviated as ATF-2) which is a substrate of p38αMAP kinase, the inhibition effect of the compound of the present invention on the ATF-2 phosphorylation by recombinant human p38αMAP kinase was examined.
A kinase buffer (25 mM Tris-HCl (pH 7.5), 5 mM β-glycerophosphate, 2 mM dithiothreitol, 0.1 mM Na3VO4, 10 mM MgCl2) containing recombinant human p38αMAP kinase (Upstate Biotechnology #14-251) (5 μL) was added to a 384-well plate for fluorescence measurement ([…] protein/well). […] Separately, 5 μL of a substrate mixture prepared with the kinase buffer (biotinylated ATF-2 (5 μg/mL) (Upstate Biotechnology, #14-432), adenosine triphosphate (90 μmol/L) (Sigma #FL-AAS) and anti-phosphorylated ATF-2 antibody (20-fold dilution) (Cell Signaling Technology, #9221L) were added and an enzyme reaction was carried out at 30° C. for 30 minutes. After completion of the reaction, the enzyme reaction was terminated by adding 5 μL of Hepes buffer containing 0.25% BSA and 100 mM EDTA. The amount of complex of phosphorylated ATF2 and anti-phosphorylated ATF2 generated by this reaction was measured using Alpha Screen™ Rabbit Detection kit (Packard #6760607). […]

The subject of another assay is THP-1. The assay can be described thus: Inhibition activity against TNF-α production using human cell line THP-1. The assay is classed as cell-based. The following applies: 1.5 h, THP-1 cells, LPS stimulation, 90 minutes, ELISA, read-out: IC50, inhibition of LPS-induced TNF-α production. As for the experimental part:
(4) Inhibition Activity Against TNF-α Production Using Human Cell Line
Using THP-1, which is a human monocyte cell line, the inhibition effect of the compound of the present invention on the TNF-α production induced by lipopolyliposaccharide (LPS) stimulation was studied.
Each 50 μL of lipopolyliposaccharide (LPS; Difco #3120-25-0) prepared at the concentration of 40 ng/mL using RPMI-1640 medium containing 10% fetal calf serum (hereinafter abbreviated as RPMI-1640) and RPMI-1640 containing the compound of the present invention was added to a 96-well plate for tissue culture. […] After completion of the reaction, the culture medium supernatant was recovered and the amount of produced TNF-α was measured using an ELISA kit (Invitrogen, #850090192).
The inhibition activity against TNF-α production, which is the effect of the compound of the present invention, was calculated as an inhibition rate (%) by the following formula. Inhibition rate (%)={(AC−AX)/(AC−AB)}×100 • AB: Measured value without LPS induction • AC: Measured value with LPS induction in the absence of the compound • AX: Measured value with LPS induction in the presence of the compound
On the technique in general: An ELISA detects its analyte on a solid surface through an enzyme-linked reagent.

T1 sequence (Q16539 whole entry): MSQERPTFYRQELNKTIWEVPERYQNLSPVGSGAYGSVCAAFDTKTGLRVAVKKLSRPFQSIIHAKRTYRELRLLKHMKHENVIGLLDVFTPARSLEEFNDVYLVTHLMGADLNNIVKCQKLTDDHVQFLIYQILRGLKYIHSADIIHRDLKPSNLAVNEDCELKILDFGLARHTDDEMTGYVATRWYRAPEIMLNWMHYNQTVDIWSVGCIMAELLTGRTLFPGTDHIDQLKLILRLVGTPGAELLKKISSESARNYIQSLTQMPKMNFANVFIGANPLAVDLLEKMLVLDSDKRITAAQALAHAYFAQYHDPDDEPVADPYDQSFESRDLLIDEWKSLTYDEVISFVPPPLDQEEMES

In general, IC50 refers to the concentration that inhibits the measured activity by half. On to `O=C1CCC(Cc2ccc(F)cc2F)CN1c1c(Cl)cccc1Cl` (stereo not drawn) [Example 1 (1), 1-(2,6-dichlorophenyl)-5-(2,4-difluorobenzyl)piperidin-2-one], for which the “concentration at which ATF-2 phosphorylation by p38αMAP kinase was inhibited” value in assay [1] was no less than 0.3 µM. For the same molecule, the IC50 in assay [2] stood at 42.9 nM; in the assay with THP-1 it was 14.5 nM.
